Experiments:
Solvent solubility = assay type: physicochemical
Text: The solvent for dissolving the organic semiconductor compound material according to the embodiment may be a hydrocarbon, an alcohol, an ether, an ester, a halogen, a ketone, […], the BTX, a non-proton polar solvent or a mixture solvent thereof. The hydrocarbon may be hexane, heptane, octane or cyclohexane, for example. The alcohol may be methanol, ethanol, (iso-)propanol or butanol. The ether may be diethyl ether, tetrahydrofuran or dioxane and the ester may be ethyl acetate or butyl acetate. The halogen may be dichloromethane or chloroform and the ketone may be acetone or methyl ethyl ketone. The nitrile may be acetonitrile or methyl nitrile. The BTX is a mixture of benzene, toluene and xylene. The non-proton polar solvent may be dimethylsulfoxide (DMSO), dimethylformamide (DMF) or hexamethylphosphoramide (HMPA).
Based on logarithmic plotting in the graph, an ON/OFF ratio of the device was approximately […].

SMILES	melting point	solubility in solvent (Solvent solubility; the above-described solvent (hydrocarbon, alcohol, ether, ester, halogen, ketone, nitrile, BTX, non-proton polar solvent))	solubility compared with known compounds (Solvent solubility; versus well-known low-molecular organic semiconductor compounds)
c1ccc2c3c(sc2c1)Sc1c(sc2ccccc12)S3 [bis(benzo[4,5]thieno)[2,3-b: 2′3′-e][1,4]dithiin]	207 to 208.3 °C		
c1ccc2c3c(sc2c1)Sc1sc2ccccc2c1S3 [bis(benzo[4,5]thieno)[2,3-b: 3′2′-e][1,4]dithiin]		soluble in the above-described solvent	higher solubility than well-known low-molecular organic semiconductor compounds

Source: patent US7951962B2, “Organic semiconductor compound, organic semiconductor thin film, organic semiconductor coating liquid, organic thin film transistor, methods for producing bis(benzo[4,5] thieno)[2,3-B:3′2′-E][1,4]dithin and bis(benzo [4,5]thieno)[2,3-B:2′3′-E][1,4]dithiin” (Seiko Epson Corporation, priority 2006, dated 2011)
